{
  "source": "patent US20210275480A1",
  "about": "“COMPOSITIONS AND METHODS FOR THE REDUCTION OR TREATMENT OF FIBROSIS” (AXCELLA HEALTH INC., priority 2018, published 2021)",
  "key": {"[1]": {"test_system": "procollagen Iα1 secretion, primary human hepatic stellate cells", "assay": "Procollagen Iα1 secretion by TGFβ1-stimulated primary human hepatic stellate cells, ELISA", "type": "cell-based", "conditions": "for procollagen Iα1 secretion: primary human hepatic stellate cells, three healthy donors, TGFβ1 3 ng/mL 24 h, summary in words", "description": "Primary human hepatic stellate cells were obtained from Samsara Sciences. Cells were grown in Complete HSC Medium to ˜80% confluence in T75 or T150 flasks below passage 10 were seeded into sterile, collagen I coated, 96-well optical plastic microplates (ThermoScientific, 152036) and incubated overnight at 37° C., 5% CO2 in a humidified incubator in DMEM with 2% Fetal Bovine Serum and 1% Antibiotic-Antimycotic. After the overnight incubation, plates are washed and pretreated with medium±single amino acid dropout, 1×HMDB DMEM±supplemental amino acid dose for 10.5 hours. After 10.5 hour pretreatment, the same pretreatment medium supplemented with 3 ng/mL TGFβ1, was applied and incubated for 24 hours at 37° C., 5% CO2. After 24 hour stimulus, supernatant was removed, RNA was extracted and gene expression was evaluated using the ΔΔCq method within each single amino acid dropout and supplementation by normalizing to its own 1×HMDB concentration.\nHuman Procollagen 1α1 was measured from the supernatant by ELISA (Human ProCollagen I alpha 1 DuoSet ELISA, R&D Systems) at 1/100 dilution in 1× Reagent Diluent (Reagent Ancillary Kit 2, R&D Systems).\nTables 32, 33, 33-1, 33-2, 33-3, and 33-4 show the fold change in procollagen Iα1 in primary human hepatic stellate cells from three different healthy donors normalized to their respective baseline amino acid conditions. Statistical significance calculated by one-way"}, "FATZO mice (NASH)": {"test_system": "FATZO mice (NASH)", "assay": "FATZO mouse western diet + fructose NASH model (Example 6): body and liver weight, liver histology, NAS, fibrosis, Sirius Red", "type": "in vivo", "conditions": "WDF-fed FATZO mice", "source_text": "In one example, the effects of […] and related amino acid compositions in the obesity, metabolism-driven non-alcoholic steatohepatitis (NASH) in FATZO mouse model was examined.\nNASH was induced in 60 male FATZO mice by a western diet (Research Diet #D12079B; fat 40% kcal, protein 17% kcal, carbohydrate 43% kcal) supplemented with 5% fructose in the drinking water (WDF) during a 16 week induction phase. Diets and water were available ad libitum. Littermate control male FATZO mice fed with a control diet (n=6, Purina #5008; fat 17% kcal, protein 27% kcal, carbohydrate 56% kcal) and sterile water were set up for control purpose. Mice were housed in plastic cages with microisolator. Sterilized bedding was replaced once a week. Mice were housed three per cage and maintained on a twelve hour light cycle throughout study duration. Room temperature was monitored daily and maintained at 22-25° C. Body weight was recorded every week during the induction phase.\nFollowing 16 weeks diet induction, 6 mice remained on control diet (group 1, Control) while 60 induced mice were randomized on body weight and plasma glucose (fed) for assignment to the following treatments. FATZO mice were administered with test articles starting at 16 weeks post western diet NASH induction for 4 weeks. Test articles were administered by oral gavage. Animals were euthanized at 20 weeks post western diet NASH induction, and tissues were harvested for analysis.\n[…], […]+G, LRQNAC, and OCA (Advanced ChemBlocks, Inc.), incipient, and water for irrigation were provided by Axcella Health, Inc. 0.5% Methylcellulose was provided by CrownBio, Inc. Dosing solutions were prepared according to Appendix 1. […] Obeticholic acid (OCA) was suspended in 0.5% methylcellulose in water for irrigation. All test articles were stored refrigerated. TA compounds were provided in frozen powder form by the sponsor. Dosing was continued for 4 weeks.\nLeucine dosages of […]+G and LRQNAC were matched to that of […].\n[…], […]+G, LRQNAC, OCA and Vehicle were administered by oral gavage at a volume of 10 mL/kg throughout the study. Dosages were calculated by daily body weight. […], […]+G, LRQNAC, and Vehicle were administered twice per day (BID), while OCA was administered once a day (QD) in the morning. Mice receiving OCA once per day (QD), and one vehicle QD. Doses were administered by oral gavage at 0700 and 1800 by oral gavage for 4 weeks.\nThe viability, clinical signs and behavior were monitored daily. Body weight was recorded daily during the dosing period. Blood samples were collected weekly in the AM (0700) via tail clip for glucose measurement (StatStrip glucometer).\nAnimals were anesthetized with CO2 inhalation and exsanguinated via cardiac puncture for euthanasia. Terminal blood samples (K2EDTA) were obtained by cardiac puncture in anesthetized animals at termination. Samples were provided frozen to Axcella Health. Organ weights (total liver, gonadal fat pads) were recorded. Pancreas, and small intestine and gonadal fat pads were fixed in 10% Buffered Formalin and prepared as directed in protocol. A section of small intestine, gonadal fat pad and liver were also snap frozen in liquid nitrogen and shipped to the sponsor.\nThe liver tissues were fixed in Bouin's solution at 4° C. for 24 hours followed by baths of standard concentrations of alcohol then xylene to prepare the tissues for paraffin embedding. After being embedded in paraffin and cooled, five-micron sections were cut and stained for routine H&E and Picric Sirius Red. A section of both right and left lobes of the livers were frozen in OCT for analysis of lipid content with Oil-Red-) staining. The Aperio whole slide digital imaging system (Scan Scope CS, Vista, Calif.) was used for imaging. All slides were imaged at 20×. The scan time ranged from 1.5 minutes to a maximum time of 2.25 minutes. […]"}, "[2]": {"conditions": "OCA oral gavage QD, 4 weeks, mean ± SEM"}},
  "data": [
    {"smiles": "CC[C@H](C)[C@H](N)C(=O)O", "note": "[ILE, isoleucine]", "values": [
      {"measurement": "Procollagen Ia1 Secretion (Fold Change of 1X), Mean", "setting": "[1]; first donor, 66 μM (baseline, reference)", "result": 1.0000, "unit": "fold"},
      {"measurement": "Procollagen Ia1 Secretion (Fold Change of 1X), Mean", "setting": "[1]; first donor, 1328 μM", "result": 0.9229, "unit": "fold"},
      {"measurement": "Procollagen Ia1 Secretion (Fold Change of 1X), Mean", "setting": "[1]; first donor, 3320 μM", "result": 1.1366, "unit": "fold"},
      {"measurement": "Procollagen Ia1 Secretion (Fold Change of 1X), Mean", "setting": "[1]; first donor, 6639 μM", "result": 1.2144, "unit": "fold"},
      {"measurement": "procollagen Iα1 secretion", "setting": "[1]", "result": "significantly increased procollagen Iα1 secretion in two of three donors"},
      {"measurement": "Procollagen Ia1 Secretion (Fold Change of 1X), Mean", "setting": "[1]; second donor, single amino acid, 66 μM (1X reference)", "result": 1.0000, "unit": "fold change"},
      {"measurement": "Procollagen Ia1 Secretion (Fold Change of 1X), Mean", "setting": "[1]; second donor, single amino acid, 1328 μM", "result": 1.4811, "unit": "fold change"},
      {"measurement": "Procollagen Ia1 Secretion (Fold Change of 1X), Mean", "setting": "[1]; second donor, single amino acid, 3320 μM", "result": 1.4940, "unit": "fold change"},
      {"measurement": "Procollagen Ia1 Secretion (Fold Change of 1X), Mean", "setting": "[1]; second donor, single amino acid, 6639 μM", "result": 1.5423, "unit": "fold change"},
      {"measurement": "Procollagen Ia1 Secretion (Fold Change of 1X), Mean", "setting": "[1]; third donor, single amino acid, 66 μM (1X reference)", "result": 1.0000, "unit": "fold change"},
      {"measurement": "Procollagen Ia1 Secretion (Fold Change of 1X), Mean", "setting": "[1]; third donor, single amino acid, 1328 μM", "result": 1.2687, "unit": "fold change"},
      {"measurement": "Procollagen Ia1 Secretion (Fold Change of 1X), Mean", "setting": "[1]; third donor, single amino acid, 3320 μM", "result": 1.2703, "unit": "fold change"},
      {"measurement": "Procollagen Ia1 Secretion (Fold Change of 1X), Mean", "setting": "[1]; third donor, single amino acid, 6639 μM", "result": 1.4465, "unit": "fold change"}
    ]},
    {"smiles": "CC[C@H]1[C@@H](O)[C@@H]2[C@H](CC[C@]3(C)[C@@H]([C@H](C)CCC(=O)O)CC[C@@H]23)[C@@]2(C)CC[C@@H](O)C[C@@H]12", "note": "[OCA, 6α-ethyl-chenodeoxycholic acid]", "values": [
      {"measurement": "Fibrosis (liver fibrosis score)", "setting": "FATZO mice (NASH); [2]", "result": "0.67 ± 0.167"},
      {"measurement": "Liver Pathology: Inflammation", "setting": "FATZO mice (NASH); [2]", "result": "1.0 ± 0.0"},
      {"measurement": "Liver Pathology: NAS", "setting": "FATZO mice (NASH); [2]", "result": "3.72 ± 0.147"},
      {"measurement": "Sirius Red (collagen staining)", "setting": "FATZO mice (NASH); [2]", "result": "1.59 ± 0.36"},
      {"measurement": "Liver Pathology: Ballooning", "setting": "FATZO mice (NASH); OCA oral gavage QD, 4 weeks, score 0-2, mean ± SEM", "result": "0.94 ± 0.056"},
      {"measurement": "Liver Pathology: Steatosis", "setting": "FATZO mice (NASH); OCA oral gavage QD, 4 weeks, score 0-3, mean ± SEM", "result": "1.78 ± 0.147"},
      {"measurement": "Body weight change compared to baseline", "setting": "FATZO mice (NASH); 4 weeks oral, LIVRQNAC 3000 mg/kg, LIVRQNAC+G 3885 mg/kg, LRQNAC 2469 mg/kg BID, OCA 30 mg/kg/day QD", "result": "−3.9±1.5", "unit": "%"},
      {"measurement": "Liver weight (% body weight)", "setting": "FATZO mice (NASH); 4 weeks, LIVRQNAC 3000 mg/kg, LIVRQNAC+G 3885 mg/kg, LRQNAC 2469 mg/kg, OCA 30 mg/kg/day", "result": "6.81±0.2", "unit": "% body weight"}
    ]},
    {"smiles": "CC(C)[C@H](N)C(=O)O", "note": "[VAL, valine]", "values": [
      {"measurement": "Procollagen Ia1 Secretion (Fold Change of 1X), Mean", "setting": "[1]; first donor, 234 μM (baseline, reference)", "result": 1.0000, "unit": "fold"},
      {"measurement": "Procollagen Ia1 Secretion (Fold Change of 1X), Mean", "setting": "[1]; first donor, 4684 μM", "result": 1.1203, "unit": "fold"},
      {"measurement": "Procollagen Ia1 Secretion (Fold Change of 1X), Mean", "setting": "[1]; first donor, 11710 μM", "result": 1.2069, "unit": "fold"},
      {"measurement": "Procollagen Ia1 Secretion (Fold Change of 1X), Mean", "setting": "[1]; first donor, 23420 μM", "result": 1.2139, "unit": "fold"},
      {"measurement": "procollagen Iα1 secretion", "setting": "[1]", "result": "significantly increased procollagen Iα1 secretion in only one of two donors"},
      {"measurement": "Procollagen Ia1 Secretion (Fold Change of 1X), Mean", "setting": "[1]; second donor, single amino acid, 234 μM (1X reference)", "result": 1.0000, "unit": "fold change"},
      {"measurement": "Procollagen Ia1 Secretion (Fold Change of 1X), Mean", "setting": "[1]; second donor, single amino acid, 4684 μM", "result": 1.2865, "unit": "fold change"},
      {"measurement": "Procollagen Ia1 Secretion (Fold Change of 1X), Mean", "setting": "[1]; second donor, single amino acid, 11710 μM", "result": 1.2877, "unit": "fold change"},
      {"measurement": "Procollagen Ia1 Secretion (Fold Change of 1X), Mean", "setting": "[1]; second donor, single amino acid, 23420 μM", "result": 1.3068, "unit": "fold change"},
      {"measurement": "Procollagen Ia1 Secretion (Fold Change of 1X), Mean", "setting": "[1]; third donor, single amino acid, 234 μM (1X reference)", "result": 1.0000, "unit": "fold change"},
      {"measurement": "Procollagen Ia1 Secretion (Fold Change of 1X), Mean", "setting": "[1]; third donor, single amino acid, 4684 μM", "result": 1.0428, "unit": "fold change"},
      {"measurement": "Procollagen Ia1 Secretion (Fold Change of 1X), Mean", "setting": "[1]; third donor, single amino acid, 11710 μM", "result": 1.0498, "unit": "fold change"},
      {"measurement": "Procollagen Ia1 Secretion (Fold Change of 1X), Mean", "setting": "[1]; third donor, single amino acid, 23420 μM", "result": 1.1139, "unit": "fold change"}
    ]}
  ]
}
